Results: US9725430B2, “Use of small molecule inhibitors targeting EYA tyrosine phosphatase” (Children's Hospital Medical Center, priority 2013, dated 2017)

Test system: A673 (Ewings sarcoma) cells
Assay: Mouse xenograft model of Ewings sarcoma
Type: in vivo, nude mice
Details: intra-peritoneal 25 mg/kg/day or intra-tumor
Procedure: The affect of EYA inhibitors on a mouse xenograft model of Ewings sarcoma was tested. 5×10^6 A673 (Ewings sarcoma) cells in 0.1 ml sterile matrigel were injected subcutaneously into the dorsal flank region of nude mice. Approximately 5 days after injection, the tumors were about 100-300 mm^3. […] The dose for intra-peritoneal injections was 25 mg/kg/day. The tumor size was monitored every other day. Animals were sacrificed after 2 weeks, or when tumor volume approached 10% of animal weight.

CCc1oc2ccccc2c1C(=O)c1cc(Br)c(O)c(Br)c1 [Compound 1, Benzbromarone, reference compound]
tumor growth: able to reduce tumor growth
